Data on 20 molecules can be found in US20100041892A1, “Therapeutic agent for diabetes” (priority 2005, published 2010).

One series addresses T1, PPARγ-RXRα heterodimer (Homo sapiens, UniProt P37231).
T1 construct: expressed in transfected cells; host or cells: CHO-K1 (PPARγ:RXRα:4ERPP/CHO-K1)
T1 sequence (P37231 1-477 isoform P37231-2): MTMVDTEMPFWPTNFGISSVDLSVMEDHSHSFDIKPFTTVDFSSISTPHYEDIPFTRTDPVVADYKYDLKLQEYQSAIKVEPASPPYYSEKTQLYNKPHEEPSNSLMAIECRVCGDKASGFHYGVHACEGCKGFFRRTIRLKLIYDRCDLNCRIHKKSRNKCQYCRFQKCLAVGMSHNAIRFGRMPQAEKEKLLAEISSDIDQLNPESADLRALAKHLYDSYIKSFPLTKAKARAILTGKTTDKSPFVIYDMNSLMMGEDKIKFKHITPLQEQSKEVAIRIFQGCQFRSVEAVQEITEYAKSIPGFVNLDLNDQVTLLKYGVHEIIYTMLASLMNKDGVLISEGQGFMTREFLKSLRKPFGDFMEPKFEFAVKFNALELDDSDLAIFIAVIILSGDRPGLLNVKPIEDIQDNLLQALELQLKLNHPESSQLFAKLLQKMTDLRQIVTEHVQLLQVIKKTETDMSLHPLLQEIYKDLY
T1 sequence (P19793 1-462 partner): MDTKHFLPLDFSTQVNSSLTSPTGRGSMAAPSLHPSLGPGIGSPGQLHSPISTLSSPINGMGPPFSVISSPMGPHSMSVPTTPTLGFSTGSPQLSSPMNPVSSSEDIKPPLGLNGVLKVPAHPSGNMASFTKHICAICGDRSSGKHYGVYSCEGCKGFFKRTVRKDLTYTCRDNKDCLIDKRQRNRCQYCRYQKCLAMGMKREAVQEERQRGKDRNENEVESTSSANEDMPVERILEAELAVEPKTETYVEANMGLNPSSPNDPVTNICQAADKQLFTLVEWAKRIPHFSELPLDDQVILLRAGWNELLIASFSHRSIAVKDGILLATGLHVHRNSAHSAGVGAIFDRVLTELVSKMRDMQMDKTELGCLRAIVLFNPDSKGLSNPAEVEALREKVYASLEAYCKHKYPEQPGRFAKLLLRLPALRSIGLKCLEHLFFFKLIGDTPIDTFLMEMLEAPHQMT
Description: PPARγ-RXRα heterodimer ligand activity (luciferase reporter, PPARγ:RXRα:4ERPP/CHO-K1 cells). Type of series: cell-based. The settings on record: concentration showing 50% of the maximum luciferase induction rate; CHO-K1 reporter cells, one day incubation. How it is done: The PPARγ:RXRα:4ERPP/CHO-K1 cells described in WO03/099793 were cultured in a Ham F12 medium [manufactured by Life Technologies, Inc., US] containing 10% calf fetal serum [manufactured by Life Technologies, Inc., US], sown in a 96-well white plate (manufactured by Corning Coster Corporation, US] at 1×10^4 cells/well, and incubated overnight in a carbon dioxide gas incubator at 37° C.
Then, the medium was removed from the 96 well white plate, 45 μl of Ham F12-medium containing 0.1% fatty acid-free bovine serum albumin (BSA) and a test compound (5 μl) were added, and the cells were incubated for one day in a carbon dioxide gas incubator at 37° C. The medium was removed, 20 μl of PicaGene 7.5 (manufactured by Wako Pure Chemical Industries, Ltd.) 2-fold diluted with HBSS (HANKS' BALANCED SALT SOLUTION) [manufactured by BIO WHITTAKER, US] was added. After stirring, the luciferase activity was determined using the 1420 ARVO Multilabel Counter [manufactured by PerkinElmer, US].
The induction rate was calculated from the luciferase activity of each test compound based on the luciferase activity of the test compound non-administration group as 1. The test compound concentration and the induction rate were analyzed by PRISM [manufactured by GraphPad Software, Inc., US] to calculate EC50 value (compound concentration showing 50% of the maximum value of induction rate) of the test compound.

The molecule `CCCCCS(=O)(=O)NC(=O)/C=C/c1ccc(OC(C)C)cc1Oc1ncc(C(F)(F)F)cc1Cl` [Example 13, (2E)-3-[2-{[3-chloro-5-(trifluoromethyl)pyridin-2-yl]oxy}-4-isopropoxyphenyl]-N-(pentylsulfonyl)acrylamide] yielded an EC50 at PPARγ-RXRα heterodimer of 26 nM.
`COCCOc1ccc(CCCOC(=O)NS(=O)(=O)c2ccc(Cl)cc2)c(Oc2ncc(C(F)(F)F)cc2Cl)c1` [Example 32, 3-[2-{[3-chloro-5-(trifluoromethyl)pyridin-2-yl]oxy}-4-(2-methoxyethoxy)phenyl]propyl [(4 chlorophenyl)sulfonyl]carbamate] yielded a melting point of 147 to 150 °C. For the same molecule, it took 6.6 nM to reach a half-maximal effect on PPARγ-RXRα heterodimer (EC50).
In the case of `CCCCCS(=O)(=O)NC(=O)CCc1ccc(OCC(=O)N(CC)CC)cc1Oc1ncc(C(F)(F)F)cc1Cl` [Example 44, 3-{2-{[3-chloro-5-(trifluoromethyl)pyridin-2-yl]oxy}-4-[2-(diethylamino)-2-oxoethoxy]phenyl}-N-(pentylsulfonyl)propanamide], the EC50 at PPARγ-RXRα heterodimer was determined as 6.9 nM.
The same measure, in the same setting: the figure for `CCCCCS(=O)(=O)NC(=O)CCc1ccc(OCCN2CCCC2=O)cc1Oc1ncc(C(F)(F)F)cc1Cl` [Example 47, 3-{2-{[3-chloro-5-(trifluoromethyl)pyridin-2-yl]oxy}-4-[2-(2-oxopyrrolidin-1-yl)ethoxy]phenyl}-N-(pentylsulfonyl)propanamide] is 3.4 nM.
As for `COCCOc1ccc(CCCOC(=O)NCC2CC2)c(Oc2ncc(C(F)(F)F)cc2Cl)c1` [Example 51, 3-[2-{[3-chloro-5-(trifluoromethyl)pyridin-2-yl]oxy}-4-(2-methoxyethoxy)phenyl]propyl (cyclopropylmethyl)carbamate], the melting point is 87.8 to 87.9 °C. Further, the EC50 on PPARγ-RXRα heterodimer was determined as 20 nM.
The like results for `CCCCCS(=O)(=O)NC(=O)OCc1ccc(OS(=O)(=O)CCC)cc1Oc1ncc(C(F)(F)F)cc1Cl` [Example 64, 3-{[3-chloro-5-(trifluoromethyl)pyridin-2-yl]oxy}-4-[({[(pentylsulfonyl)amino]carbonyl}oxy)methyl]phenyl propane-1-sulfonate] were, in that order, 86 to 89 °C and 8.7 nM.
Regarding `CCCCCS(=O)(=O)NC(=O)/C=C/c1cc(OC(C)C)nn1Cc1ccc(C(F)(F)F)cc1Cl` [Example 111, (2E)-3-{1-[2-chloro-4-(trifluoromethyl)benzyl]-3-isopropoxy-1H-pyrazol-5-yl}-N-(pentylsulfonyl)acrylamide], at PPARγ-RXRα heterodimer, the midpoint of the response, the EC50, lay at 9.3 nM.
In turn, `CCCCCS(=O)(=O)NC(=O)CCc1ccc(OCCOC)cc1OCc1nc(-c2ccccc2)oc1C` [Example 173, 3-{4-(2-methoxyethoxy)-2-[(5-methyl-2-phenyl-1,3-oxazol-4-yl)methoxy]phenyl}-N-(pentylsulfonyl)propanamide] yielded a melting point of 95.9 to 96.7 °C. Further, the midpoint of the response on PPARγ-RXRα heterodimer, the EC50, lay at 9.8 nM.
For `CCCCCS(=O)(=O)NC(=O)/C(C)=C/c1ccc(OCCCOC)cc1Oc1ncc(Cl)cc1Cl` [Example 190, (2E)-3-[2-[(3,5-dichloropyridin-2-yl)oxy]-4-(3-methoxypropoxy)phenyl]-2-methyl-N-(pentylsulfonyl)acrylamide], in that order: 116 to 116.8 °C and 15 nM.
In turn, `CCCCCS(=O)(=O)NC(=O)/C=C/c1cc(OC(C)C)nn1Cc1ncc(C(F)(F)F)cc1Cl` [Example 199, (2E)-3-(1-{[3-chloro-5-(trifluoromethyl)pyridin-2-yl]methyl}-3-isopropoxy-1H-pyrazol-5-yl)-N-(pentylsulfonyl)acrylamide] displayed an EC50 at PPARγ-RXRα heterodimer of 13 nM.
The same measure, in the same setting: the figure for `CCCCCS(=O)(=O)NC(=O)C(C)Cc1ccc(OCCOC)cc1Oc1ncc(C(F)(F)F)cc1Cl` (stereo not drawn) [Example 209, 3-[2-{[3-chloro-5-(trifluoromethyl)pyridin-2-yl]oxy}-4-(2-methoxyethoxy)phenyl]-2-methyl-N-(pentylsulfonyl)propanamide] is 2.3 nM.
In turn, `C/C(=C\c1ccc(OC(C)C)cc1Oc1ncc(C(F)(F)F)cc1Cl)C(=O)NS(=O)(=O)NC1CCC(C)CC1` (stereo not drawn) [Example 223, (2E)-3-(2-{[3-chloro-5-(trifluoromethyl)pyridin-2-yl]oxy}-4-isopropoxyphenyl)-2-methyl-N-{[(4-methylcyclohexyl)amino]sulfonyl}acrylamide] showed a melting point of 176.8 to 177.2 °C. This molecule displayed an EC50 on PPARγ-RXRα heterodimer of 55 nM.
The like results for `CCCCCNS(=O)(=O)NC(=O)/C(C)=C/c1ccc(OC(C)C)cc1Oc1ncc(C(F)(F)F)cc1Cl` [Example 224, (2E)-3-(2-{[3-chloro-5-(trifluoromethyl)pyridin-2-yl]oxy}-4-isopropoxyphenyl)-2-methyl-N-[(pentylamino)sulfonyl]acrylamide] were, in that order, 137.8 to 138.5 °C and 16 nM.
For `C/C(=C\c1ccc(OC(C)C)cc1Oc1ncc(C(F)(F)F)cc1Cl)C(=O)NS(=O)(=O)NCCc1cccs1` [Example 225, (2E)-3-(2-{[3-chloro-5-(trifluoromethyl)pyridin-2-yl]oxy}-4-isopropoxyphenyl)-2-methyl-N-({[2-(2-thienyl)ethyl]amino}sulfonyl)acrylamide], in that order: 130 to 131 °C and 16 nM.
The like results for `CCCCCNS(=O)(=O)NC(=O)/C(C)=C/c1ccc(OCCOC)cc1Oc1ncc(C(F)(F)F)cc1Cl` [Example 226, (2E)-3-[2-{[3-chloro-5-(trifluoromethyl)pyridin-2-yl]oxy}-4-(2-methoxyethoxy)phenyl]-2-methyl-N-[(pentylamino)sulfonyl]acrylamide] were, in that order, 152.5 to 153 °C and 8.5 nM.
The molecule `CCCCCS(=O)(=O)NC(=O)/C=C/c1ccc(OCCC(C)(C)O)cc1Oc1ncc(C(F)(F)F)cc1Cl` [Example 248, (2E)-3-[2-{[3-chloro-5-(trifluoromethyl)pyridin-2-yl]oxy}-4-(3-hydroxy-3-methylbutoxy)phenyl]-N-(pentylsulfonyl)acrylamide] returned a melting point of 135.5 to 136 °C. The EC50 on PPARγ-RXRα heterodimer is 18 nM.
As to `CCCCCS(=O)(=O)NC(=O)/C=C/c1ccc(OCCCOC)cc1Oc1ncc(C(F)(F)F)cc1Cl` [Example 251, (2E)-3-[2-{[3-chloro-5-(trifluoromethyl)pyridin-2-yl]oxy}-4-(3-methoxypropoxy)phenyl]-N-(pentylsulfonyl)acrylamide], the midpoint of the response on PPARγ-RXRα heterodimer, the EC50, lay at 7.4 nM.
At PPARγ-RXRα heterodimer, `COCCOc1ccc(CCCOC(=O)NS(=O)(=O)N2Cc3ccccc3C2)c(Oc2ncc(C(F)(F)F)cc2Cl)c1` [Example 371, 3-[2-{[3-chloro-5-(trifluoromethyl)pyridin-2-yl]oxy}-4-(2-methoxyethoxy)phenyl]propyl (1,3-dihydro-2H-isoindol-2-ylsulfonyl)carbamate] showed an EC50 of 4.7 nM.
The same measure, in the same setting: the figure for `COCCOc1ccc(CCCOC(=O)NS(=O)(=O)NCCc2ccccn2)c(Oc2ncc(Cl)cc2Cl)c1` [Example 427, 3-[2-[(3,5-dichloropyridin-2-yl)oxy]-4-(2-methoxyethoxy)phenyl]propyl {[(2-pyridin-2-ylethyl)amino]sulfonyl}carbamate] is 22 nM.
Regarding `CCCCCS(=O)(=O)NC(=O)/C=C/c1ccc(OCCCC#N)cc1Oc1ncc(C(F)(F)F)cc1Cl` [Example 451, (2E)-3-[2-{[3-chloro-5-(trifluoromethyl)pyridin-2-yl]oxy}-4-(3-cyanopropoxy)phenyl]-N-(pentylsulfonyl)acrylamide], the 50% effective concentration (EC50) at PPARγ-RXRα heterodimer came out at 15 nM.
